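Test compounds were applied to cells in 96-well plates for 48 hours at 5 doses. TGI denotes the concentration required for complete inhibition of growth.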

Usually TGI stands for the concentration giving total growth inhibition. Higher therefore signals lower sensitivity of the cells.

Experiment in all cases: DTP human tumour cell line panel, 48 h
In test [1] the test system is ACHN renal.
Test [2] concerns DLD-1 colon.
In test [3] the test system is DMS 114 small cell lung.
Test [4] relates to IGROV1 ovarian.
Test [5] deals with KM20L2 colon.
Test [6] concerns M19-MEL melanoma.
The subject of test [7] is MDA-MB-435.
For test [8], the system named is NCI-H23 lung.
The test system of test [9] is OVCAR-4 ovarian.
In test [10] the test system is SK-MEL-28 melanoma.
Test [11] relates to SN12C renal.
Test [12] deals with SNB-19 CNS.

For `CN(C)C(=S)/N=c1\ssc(=S)n1Cc1cccs1`, the TGI in [1] is more than 100 µM; in test [2] it was more than 100 µM; in test [3], 5.6 µM; in test [4] it was more than 100 µM; in test [5], 3.57 µM; in test [6] it was more than 100 µM. For the same compound, the TGI in [7] is 2710 nM; in [8] it was more than 100 µM; in test [9], more than 91.7 µM; in [10], more than 100 µM; in test [11] it was more than 100 µM; in test [12] it was more than 90.9 µM.
Regarding `Nc1ncnc2c1sc(=S)n2-c1ccccc1`, the TGI in test [1], in [2], in test [3], in [4], in test [5] and in [6] was more than 100 µM each time. The TGI in test [8], in test [9], in test [10], in test [11] and in test [12] was more than 100 µM each time.
`C[N+](C)=c1ccc2nc3c(ccc4ccccc43)oc-2c1`: the TGI in test [1] amounted to 26.7 µM; in [2], 21.1 µM; in test [3], 54.4 µM; in [4], 17.2 µM; in test [5], 27.1 µM; in [6], 12.5 µM. The TGI in test [8] turned out to be 27.2 µM; in test [9], 26.3 µM; in [10], 28.4 µM; in [11], 31.8 µM; in [12] it was 31.6 µM.
As to `Brc1c2nc3ccccc3nc2n2ccc3ccccc3c12`, the TGI in test [1], in [2], in [3], in [4], in test [5] and in test [6] was more than 100 µM throughout. The TGI in test [8], in test [9], in [10], in [11] and in test [12] was more than 100 µM throughout.

For the origin of these results see PubChem BioAssay (NCI).
